Measured values taken from patent EP2929883A1, “Pyrazole derivatives as dihydroorotate dehydrogenase (DHODH) inhibitors” (INSTITUT PASTEUR, priority 2014, dated 2015).
In brackets after ≈: the same amount, converted by molar mass.

Tests used:
[1] = system: Jurkat cells; assay: inhibition of the proliferation of Jurkat cells (CellTiter-Glo); format: cell-based; settings: Homo sapiens, 72 h, read-out: IC50, Jurkat cells proliferation
Protocol: As a control, cells were treated with DMSO alone. At t=0 and after 72 hours of culture, the number of living cells was determined using the CellTiter-Glo reagent. The inhibition of cellular proliferation is expressed as a percentage relative to DMSO-treated control wells. Presented results correspond to the mean ± SD of two independent experiments.
Jurkat cells were cultured in at 5.10+4 cells per well in flat-bottom 96-well culture dishes. […] Number of living cells was determined by quantification of adenosine triphosphate (ATP) in culture wells using the CellTiter-Glo Assay (Promega) following manufacturer's recommendations.

[2] = system: measles virus; assay: microbe, parasite or virus in culture; settings: Measles morbillivirus; for IC50: HEK-293T, read-out: IC50 on the measles virus
[3] = target: T1, recombinant human DHODH (Homo sapiens, UniProt Q02127); assay: recombinant DHODH enzymatic assay (DCIP reduction); format: biochemical; settings: 25°C, DCIP reduction at 600 nm
T1 construct: N-terminally truncated (first 29 amino acids) human DHODH; made in house; host or cells: E. coli BL21(DE3)/pDIA17
T1 sequence (Q02127 29-395): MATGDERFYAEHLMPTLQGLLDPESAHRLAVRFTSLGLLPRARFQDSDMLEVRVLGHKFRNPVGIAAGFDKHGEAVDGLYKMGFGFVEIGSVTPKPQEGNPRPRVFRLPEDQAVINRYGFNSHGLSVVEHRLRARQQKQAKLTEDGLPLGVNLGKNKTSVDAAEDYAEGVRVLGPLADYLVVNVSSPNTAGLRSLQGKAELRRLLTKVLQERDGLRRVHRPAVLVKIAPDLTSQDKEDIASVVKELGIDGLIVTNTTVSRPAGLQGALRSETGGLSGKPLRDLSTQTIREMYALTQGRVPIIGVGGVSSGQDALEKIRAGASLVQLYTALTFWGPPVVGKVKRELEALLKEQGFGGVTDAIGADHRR
Protocol: Enzymatic assay DHODH activity was determined at 25°C following the reduction of DCIP at 600 nm (ε = 18,800 M^-1 cm^-1) on a spectrophotometer. […] The reaction medium used for this contained 50 mM Tris-HCl pH 8.0, 0.1% Triton X-100, 0.1 mM L-DHO, 0.025 mM CoQ1 and 0.06 mM DCIP. The reaction was started by addition of the enzyme.

SMILES	IC50 [1] [µM]	MIC50 [2] [µM]	MIC50 ([2]; 24 h) [µM]	IC50 [2] [µM]	IC50 [3] [µM]
C/C(O)=C(\C#N)C(=O)Nc1ccc(C(F)(F)F)cc1 [Teriflunomide, reference compound]	~60	50 (≈ 13.5 µg/mL)	–	–	–
c1ccc(-c2ccn(-c3ncc(C4CC4)cn3)n2)cc1 [example 122, 5-cyclopropyl-2-(3-phenyl-1H-pyrazol-1-yl)pyrimidine]	–	–	0.5 to 5 (≈ 0.131 to 1.31 µg/mL)	3.8	22.8 ± 2.8
Cc1c(C(O)c2ccccc2)c(OC(C)C)nn1-c1ncc(C2CC2)cn1 (centres unmarked) [example 176, (1-(5-cyclopropylpyrimidin-2-yl)-3-isopropoxy-5-methyl-1H-pyrazol-4-yl)(phenyl)methanol]	–	–	0.0005 to 0.05 (≈ 0.000182 to 0.0182 µg/mL)	0.0014	0.016 ± 0.003
